Assay results taken from ChEMBL document CHEMBL6182910, “Design, Synthesis, and Biological Evaluation of 4-(Difluoromethyl)-1H-imidazole-5-carboxylic Acids/4-(3-Cyanophenoxy)pyrimidine-5-carboxylic Acids as P2Y1 Receptor Antagonists for Ischemic Stroke Treatment” (J Med Chem, 2025).
The source made the active and inactive calls. The calls are words filed in the database; no cut-off is given here.

Tests used:
[1] = Antioxidant activity assessed as DPPH radical scavenging activity at 60 uM incubated for 30 mins under dark condition by absorbance based method; assay type: functional
[2] = tested on: Plasma; test: Anti-platelet aggregation in platelet-rich plasma of male male Sprague-Dawley rat assessed as inhibition of ADP-induced platelet aggregation preincubated for 15 mins followed by ADP addition measured up to 10 mins by Born's turbidometric method; assay type: functional, cell-free
[3] = tested on: Plasma; test: Anti-platelet aggregation in platelet-rich plasma of male human assessed as inhibition of ADP-induced platelet aggregation preincubated for 15 mins followed by ADP addition measured up to 10 mins by Born's turbidometric method; assay type: functional, cell-free
[4] = Antagonist activity at P2Y1 receptor in platelet-rich plasma of male Japanese white rabbit assessed as inhibition of ADP-induced cytosolic Ca2+ level pretreated for 5 mins followed by ADP addition by FLUO-4 AM dye based analysis; assay type: cell-free; conditions: Oryctolagus cuniculus
[5] = organism: Oryctolagus cuniculus; test: Antagonist activity at P2Y12 receptor in platelet-rich plasma of male Japanese white rabbit assessed as inhibition of VASP phosphorylation at Ser239 at 30 uM pretreated for 10 mins followed by PGE1/ADP addition measured after 10 mins by ELISA relative to control; assay type: cell-free; conditions: time 20.0 min
[6] = target: P2Y purinoceptor 12 (Rattus norvegicus) (UniProt Q9EPX4); test: Antagonist activity at P2Y12 receptor in platelet-rich plasma of male Sprague-Dawley rat assessed as inhibition of VASP phosphorylation at Ser239 at 30 uM pretreated for 10 mins followed by PGE1/ADP addition measured after 10 mins by ELISA relative to control; assay type: cell-free; conditions: time 20.0 min
[7] = target: P2Y purinoceptor 1 (Rattus norvegicus) (UniProt P49651); test: Induction of thermodynamic stability of P2Y1 receptor in rat platelet-rich plasma incubated for 30 mins followed by heat exposure at 61 degreeC for 10 mins by CETSA; assay type: cell-free; conditions: dose <= 100.0 µM, time 40.0 min
[8] = Metabolic stability in human liver microsomes assessed as parent compound remaining at 1 uM measured after 3 hrs in presence of NADPH by LC-MS/MS analysis; assay type: ADME, Microsome; conditions: read-out: Stability
[9] = Metabolic stability in rat liver microsomes assessed as parent compound remaining at 1 uM measured after 3 hrs in presence of NADPH by LC-MS/MS analysis; assay type: ADME, Microsome; conditions: read-out: Stability
[10] = target: CYP2C9 (Homo sapiens, UniProt P11712); test: Inhibition of CYP2C9 in human liver microsomes using tolbutamide as substrate at 10 uM preincubated for 5 min followed by NADPH addition measured after 120 mins by LC-MS/MS analysis relative to control; assay type: ADME, Microsome; conditions: probe tolbutamide, time 125 min
[11] = Protein binding in rat plasma at 10 uM incubated for 12 hrs by equilibrium dialysis method; assay type: ADME, cell-free; conditions: read-out: PPB (converted)
[12] = Cmax male Sprague-Dawley rat at 10 mg/kg, po measured up to 24 hrs by LC-MS/MS analysis; assay type: ADME, organism-based; conditions: in vivo
[13] = AUC (0 to infinity) male Sprague-Dawley rat at 10 mg/kg, po measured up to 24 hrs by LC-MS/MS analysis; assay type: ADME, organism-based; conditions: in vivo
[14] = Tmax male Sprague-Dawley rat at 10 mg/kg, iv measured up to 24 hrs by LC-MS/MS analysis; assay type: ADME, organism-based; conditions: in vivo
[15] = Cmax male Sprague-Dawley rat at 10 mg/kg, iv measured up to 24 hrs by LC-MS/MS analysis; assay type: ADME, organism-based; conditions: in vivo
[16] = AUC in brain of male Kunming mouse at 10 mg/kg, iv measured for 0.083 to 24 hrs by LC-MS/MS analysis; assay type: ADME, organism-based; conditions: in vivo, time 0.083-24 hrs
[17] = Ratio of AUC in brain to plasma of male Kunming mouse at 10 mg/kg, iv measured for 0.083 to 24 hrs by LC-MS/MS analysis; assay type: ADME, organism-based; conditions: brain and plasma, time 0.083-24 hrs, read-out: Ratio AUC
[18] = tested on: Rattus norvegicus; test: Anti-platelet aggregation in Sprague-Dawley rat assessed as inhibition of ADP-induced platelet aggregation at 10 mg/kg, po measured for 15 mins in presence of 5 uM ADP by cell counter analysis relative to control; assay type: functional; conditions: 0.25 h
[19] = tested on: Rattus norvegicus; test: Anti-platelet aggregation in Sprague-Dawley rat assessed as reduction in ADP-induced bleeding loss at 10 mg/kg, po measured for 15 mins in presence of 10 uM ADP; assay type: functional, organism-based
[20] = tested on: Rattus norvegicus; test: Neuroprotective activity in MCAO-induced brain damage Sprague-Dawley rat model assessed as reduction in brain water content at 2.5 to 10 mg/kg, iv administered immediately after arterial occlusion measured after 24 hrs; assay type: functional, organism-based; conditions: dose 2.5-10 mg/kg
[21] = tested on: Rattus norvegicus; test: Neuroprotective activity in MCAO-induced brain damage Sprague-Dawley rat model assessed as improvement in motor co-ordination administered intravenously immediately after arterial occlusion measured after 24 hrs by Longa's method; assay type: functional, organism-based; conditions: dose 2.5-10 mg/kg, route iv
[22] = tested on: Rattus norvegicus; test: Neuroprotective activity in MCAO-induced brain damage Sprague-Dawley rat model assessed as reduction in brain infarction size at 2.5 mg/kg, iv administered immediately after arterial occlusion measured after 24 hrs by TTC staining based analysis relative to control; assay type: functional; design: scale not given: the % may be the effect or the level left
[23] = tested on: Rattus norvegicus; test: Neuroprotective activity in MCAO-induced brain damage Sprague-Dawley rat model assessed as reduction in brain infarction size at 5 mg/kg, iv administered immediately after arterial occlusion measured after 24 hrs by TTC staining based analysis relative to control; assay type: functional; design: scale not given: the % may be the effect or the level left
[24] = tested on: Rattus norvegicus; test: Neuroprotective activity in MCAO-induced brain damage Sprague-Dawley rat model assessed as reduction in brain infarction size at 10 mg/kg, iv administered immediately after arterial occlusion measured after 24 hrs by TTC staining based analysis relative to control; assay type: functional; design: scale not given: the % may be the effect or the level left
[25] = tested on: Rattus norvegicus; test: Neuroprotective activity in MCAO-induced brain damage Sprague-Dawley rat model assessed as brain infarction size at 2.5 mg/kg, iv administered immediately after arterial occlusion measured after 24 hrs by TTC staining based analysis (reference value: 43.1 %); assay type: functional
[26] = tested on: Rattus norvegicus; test: Neuroprotective activity in MCAO-induced brain damage Sprague-Dawley rat model assessed as brain infarction size at 10 mg/kg, iv administered immediately after arterial occlusion measured after 24 hrs by TTC staining based analysis (reference value: 43.1 %); assay type: functional
[27] = tested on: Rattus norvegicus; test: Neuroprotective activity in MCAO-induced brain damage Sprague-Dawley rat model assessed as plasma MDA level at 2.5 to 10 mg/kg, iv administered immediately after arterial occlusion measured after 24 hrs (reference value: 51.7 %); assay type: functional; conditions: dose 2.5-10 mg/kg
[28] = tested on: Rattus norvegicus; test: Neuroprotective activity in MCAO-induced brain damage Sprague-Dawley rat model assessed as plasma MDA level at 2.5 to 10 mg/kg, iv administered immediately after arterial occlusion measured after 24 hrs (reference value: 7.93 nmol/ml); assay type: functional; conditions: dose 2.5-10 mg/kg
[29] = tested on: Rattus norvegicus; test: Neuroprotective activity in MCAO-induced brain damage Sprague-Dawley rat model assessed as plasma GSH-px level at 2.5 to 10 mg/kg, iv administered immediately after arterial occlusion measured after 24 hrs; assay type: functional; conditions: dose 2.5-10 mg/kg
[30] = tested on: Rattus norvegicus; test: Neuroprotective activity in MCAO-induced brain damage Sprague-Dawley rat model assessed as improvement in hippocampal neuron damage administered intravenously immediately after arterial occlusion measured after 24 hrs by H and E staining based analysis; assay type: functional, organism-based; conditions: dose 2.5-10 mg/kg, route iv
[31] = tested on: Rattus norvegicus; test: Neuroprotective activity in MCAO-induced brain damage Sprague-Dawley rat model assessed as transparent cytoplasm at 2.5 to 10 mg/kg, iv administered immediately after arterial occlusion measured after 24 hrs by H and E staining based analysis; assay type: functional, organism-based; conditions: dose 2.5-10 mg/kg

Chain of CYP2C9 (P11712 whole entry): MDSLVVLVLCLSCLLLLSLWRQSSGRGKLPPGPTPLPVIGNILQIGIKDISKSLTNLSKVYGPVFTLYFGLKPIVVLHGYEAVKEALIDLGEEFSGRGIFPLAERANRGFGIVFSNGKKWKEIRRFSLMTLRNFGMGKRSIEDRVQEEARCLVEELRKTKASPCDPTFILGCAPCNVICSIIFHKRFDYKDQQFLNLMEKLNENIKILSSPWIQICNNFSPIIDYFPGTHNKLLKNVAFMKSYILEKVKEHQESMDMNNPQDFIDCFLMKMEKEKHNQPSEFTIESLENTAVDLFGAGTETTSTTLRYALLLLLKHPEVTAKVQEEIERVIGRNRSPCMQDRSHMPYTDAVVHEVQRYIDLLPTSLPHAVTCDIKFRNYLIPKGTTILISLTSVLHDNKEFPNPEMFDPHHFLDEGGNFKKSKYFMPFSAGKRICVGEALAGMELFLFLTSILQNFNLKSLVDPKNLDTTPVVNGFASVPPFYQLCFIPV
Chain of P2Y purinoceptor 1 (Rattus norvegicus) (P49651 whole entry): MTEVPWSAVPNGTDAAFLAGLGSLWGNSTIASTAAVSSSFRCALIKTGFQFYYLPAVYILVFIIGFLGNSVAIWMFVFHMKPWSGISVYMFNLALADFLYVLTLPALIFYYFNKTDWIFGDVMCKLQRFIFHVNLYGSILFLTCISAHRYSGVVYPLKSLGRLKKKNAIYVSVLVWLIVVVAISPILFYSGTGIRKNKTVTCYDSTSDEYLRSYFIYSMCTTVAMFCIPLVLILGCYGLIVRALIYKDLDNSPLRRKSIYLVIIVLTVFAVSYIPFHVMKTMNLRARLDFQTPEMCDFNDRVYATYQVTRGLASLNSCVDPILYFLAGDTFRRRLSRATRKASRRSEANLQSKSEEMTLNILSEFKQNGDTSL
Chain of P2Y purinoceptor 12 (Rattus norvegicus) (Q9EPX4 whole entry): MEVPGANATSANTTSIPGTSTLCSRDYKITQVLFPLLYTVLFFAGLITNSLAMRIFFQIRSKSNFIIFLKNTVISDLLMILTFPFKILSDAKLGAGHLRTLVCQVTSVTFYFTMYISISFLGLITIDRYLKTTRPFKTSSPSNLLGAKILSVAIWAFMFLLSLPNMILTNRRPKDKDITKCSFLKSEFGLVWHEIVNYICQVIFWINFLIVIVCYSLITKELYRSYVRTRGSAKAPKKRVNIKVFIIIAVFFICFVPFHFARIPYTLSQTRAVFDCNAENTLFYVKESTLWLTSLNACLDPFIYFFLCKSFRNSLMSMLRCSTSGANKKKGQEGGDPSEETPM

SMILES | Activity [1] [%] | IC50 [2] [µM] | IC50 [3] [µM] | IC50 [4] [µM] | inhibition [5] [%] | inhibition [6] [%] | Activity [7] | remaining at 3 h, 1 µM [8] [%] | remaining at 3 h, 1 µM [9] [%] | inhibition at 2 h, 10 µM [10] [%] | fraction unbound at 12 h, 10 µM [11] | Tmax [14] [min] | Cmax [15] [µg/mL] | AUC [16] [µg·h/g] | Kp [17] | inhibition in vivo at 10 mg/kg [18] [%] | Activity [19] | Activity [20] | Activity [21] | Activity [22] [%] | also measured
N#Cc1cccc(Oc2nc(-c3cccc(C#N)c3)ncc2C(=O)O)c1 | 6.15 | 2.81 | 3.63 | 0.5 | 35.9 | 29.3 | Dose-dependent-effect | 76.9 | 71.5 | 26.3 | 0.046 | 4.98 | 48.2 | 12.81 | 2.39 | 47.6 | Moderate_effect; Moderate Bleeding Loss Was Observed; Potency Was More Than Bptu And Ticagrelor | Active; Water Content Did Not Return To Blank Level; At 10 Mg/Kg, Compound Showed Comparable Effect To Bptu, Edaravone, Hnw001 | Dose-dependent-effect; Outperformed Edaravone And Hnw001 At 10 Mg/Kg | 32 | Cmax ([12]; po, 10 mg/kg, 24 h): 0.61 µg/mL; AUC ([13]; po, 10 mg/kg, 24 h): 0.986 µg·h/mL; Activity [23]: 50.6%; Activity [24]: 74.2%; Activity [25]: 29.3%; Activity [26]: 11.1%; Activity [27]: 32%; Activity [28]: 4.37 nmol/mL; Activity [29]: 591.5 U/ml; Activity [30]: Dose-dependent-effect; Activity Comparable To Hnw001, Bptu, Edaravone At 10 Mg/Kg; Activity [31]: Active
N#Cc1cccc(-c2nc(C(F)F)c(C(=O)O)n2OCc2csc(N)n2)c1 | 4.29 | 2.52 | 3.35 | 0.49 | 24.5 | 18.4 | Dose-dependent-effect | 92.5 | 99.4 | 9.7 | 0.074 | 4.98 | 44.3 | 0.7 | 1.08 | 43.2 | Active; No Bleeding Loss Was Observed | Active; Water Content Did Not Return To Blank Level | Dose-dependent-effect; Outperformed Edaravone And Hnw001 At 10 Mg/Kg | 40.6 | Cmax ([12]; male, Sprague-Dawley, read-out: Cmax): 0.48 µg/mL; AUC(0-inf) ([13]; male, Sprague-Dawley): 0.036 µg·h/mL; Activity [23]: 45.9%; Activity [24]: 51.5%; Activity [25]: 25.6%; Activity [26]: 20.9%; Activity [27]: 32%; Activity [28]: 4.37 nmol/mL; Activity [29]: 645.4 U/ml; Activity [30]: Dose-dependent-effect; Activity Comparable To Hnw001, Bptu, Edaravone At 10 Mg/Kg; Activity [31]: Active
